Test results: article PMC10828444, “Selective inhibition of overactive warmth-sensitive Ca^2+-permeable TRPV3 channels by antispasmodic agent flopropione for alleviation of skin inflammation” (The Journal of Biological Chemistry, 2023)

Experiments:
hTRPA1 = target: T1, hTRPA1 (Homo sapiens, UniProt O75762); assay: Whole-cell patch-clamp of TRPA1 currents activated by AITC in HEK293 cells; format: cell-based; settings: flopropione 100 μM, AITC 300 μM
T1 construct: expressed in transfected cells; host or cells: HEK293
T1 sequence (O75762 whole entry): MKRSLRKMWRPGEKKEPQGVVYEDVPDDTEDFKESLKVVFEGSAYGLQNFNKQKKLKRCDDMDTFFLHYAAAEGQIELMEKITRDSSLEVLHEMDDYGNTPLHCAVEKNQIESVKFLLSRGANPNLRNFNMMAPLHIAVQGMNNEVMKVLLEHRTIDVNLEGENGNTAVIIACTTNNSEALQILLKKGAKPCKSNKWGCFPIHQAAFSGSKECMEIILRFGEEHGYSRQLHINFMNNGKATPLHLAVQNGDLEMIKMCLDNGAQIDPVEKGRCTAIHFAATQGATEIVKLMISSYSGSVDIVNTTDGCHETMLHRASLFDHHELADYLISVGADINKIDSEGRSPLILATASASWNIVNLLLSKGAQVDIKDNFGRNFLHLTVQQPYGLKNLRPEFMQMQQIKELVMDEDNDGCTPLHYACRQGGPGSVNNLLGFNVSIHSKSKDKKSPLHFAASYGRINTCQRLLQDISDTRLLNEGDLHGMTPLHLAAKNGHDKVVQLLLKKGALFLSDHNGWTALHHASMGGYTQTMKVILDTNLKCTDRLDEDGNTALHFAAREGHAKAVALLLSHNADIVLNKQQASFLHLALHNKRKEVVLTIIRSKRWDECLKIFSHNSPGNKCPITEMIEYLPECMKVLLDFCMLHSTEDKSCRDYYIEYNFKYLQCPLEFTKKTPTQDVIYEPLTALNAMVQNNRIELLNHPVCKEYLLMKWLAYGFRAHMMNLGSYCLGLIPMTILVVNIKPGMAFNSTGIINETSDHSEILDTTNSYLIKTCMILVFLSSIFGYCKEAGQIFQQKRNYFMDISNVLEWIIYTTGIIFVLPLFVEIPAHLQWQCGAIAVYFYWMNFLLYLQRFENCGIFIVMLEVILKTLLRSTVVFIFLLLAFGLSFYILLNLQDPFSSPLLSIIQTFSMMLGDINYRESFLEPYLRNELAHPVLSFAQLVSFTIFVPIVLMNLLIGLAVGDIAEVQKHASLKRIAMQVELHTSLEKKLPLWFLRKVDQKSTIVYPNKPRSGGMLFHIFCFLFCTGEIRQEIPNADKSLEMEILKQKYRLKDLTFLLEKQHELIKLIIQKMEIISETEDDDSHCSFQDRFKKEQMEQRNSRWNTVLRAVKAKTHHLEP
Method: (§1) HEK293 cells were cultured in Dulbecco’s modified Eagle’s medium (DMEM, Gibco) containing 4.5 g/L D-glucose supplemented with 10% fetal bovine serum based at 37 °C with 5% CO2. For whole-cell patch-clamp recordings, cells were grown in glass coverslips for 24 h before transient transfections with 3000 ng cDNAs of hTRPV3 (gene accession number BC104866.1), hTRPV1 (accession number NM_080704.3), mTRPV2 (accession number NM_011706.2), hTRPV4 (accession number NM_021625.5), hTRPA1 (accession number NM_007332.3) and hTRPM8 (accession number NM_024080.5) into HEK293 cells grown in a 35-mm cell culture dish using Lipofectamine 2000 (Invitrogen). Cells were used 18 ∼ 24 h after transfection. All WT or mutant hTRPV3 plasmids were validated by DNA sequencing.
(§2) Whole-cell patch clamp recordings of wild-type and mutants were carried out at room temperature using the HEKA EPC10 amplifier powered by PatchMaster software (HEKA) or MultiClamp 700B amplifier driven by Clampex 11.0.3 software. The borosilicate glass pipettes were pulled and fire-polished to 3∼6 MΩ using a DMZ universal electrode puller (Zeitz-Instruments, GmbH). Pipette solution and bath solution both contained (in mM): 130 NaCl, three HEPES, and 0.2 EDTA (pH = 7.4). Cell membrane potential was held at 0 mV, currents were recorded at a voltage ramp from −100 to +100 mV for 500-ms and analyzed at ±80 mV.

hTRPV3 channels = target: T2, hTRPV3 channels (Homo sapiens, UniProt Q8NET8); assay: Whole-cell patch-clamp of hTRPV3 currents activated by 2-APB in HEK293 cells; format: cell-based
T2 construct: expressed in transfected cells; host or cells: HEK293
T2 sequence (Q8NET8 1-790): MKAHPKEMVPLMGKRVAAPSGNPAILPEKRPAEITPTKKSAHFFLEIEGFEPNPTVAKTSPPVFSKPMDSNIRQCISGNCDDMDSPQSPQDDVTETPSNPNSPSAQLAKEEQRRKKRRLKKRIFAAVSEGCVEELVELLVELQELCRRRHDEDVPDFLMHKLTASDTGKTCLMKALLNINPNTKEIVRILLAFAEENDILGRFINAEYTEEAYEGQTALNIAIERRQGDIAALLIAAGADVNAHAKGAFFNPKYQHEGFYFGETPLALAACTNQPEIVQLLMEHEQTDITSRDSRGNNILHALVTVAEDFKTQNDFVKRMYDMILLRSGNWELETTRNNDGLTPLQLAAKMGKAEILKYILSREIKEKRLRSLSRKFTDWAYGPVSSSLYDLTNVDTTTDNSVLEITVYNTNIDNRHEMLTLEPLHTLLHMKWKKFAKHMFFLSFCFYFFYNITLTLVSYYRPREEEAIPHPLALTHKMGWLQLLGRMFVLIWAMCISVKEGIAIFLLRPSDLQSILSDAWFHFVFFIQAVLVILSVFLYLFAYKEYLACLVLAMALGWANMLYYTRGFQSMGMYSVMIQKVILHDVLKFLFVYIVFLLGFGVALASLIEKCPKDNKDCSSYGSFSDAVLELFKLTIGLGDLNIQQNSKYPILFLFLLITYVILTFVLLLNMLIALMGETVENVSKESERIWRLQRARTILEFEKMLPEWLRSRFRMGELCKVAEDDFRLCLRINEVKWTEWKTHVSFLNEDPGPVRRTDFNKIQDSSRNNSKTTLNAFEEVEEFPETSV
Method: as §1, §2

CCC(=O)c1c(O)cc(O)cc1O [flopropione]
effect on TRPA1 currents (hTRPA1): no effect | inhibition at 100 µM (hTRPV3 channels; HEK293, flopropione 100 μmol/L, agonist 2-APB 50 μmol/L, read-out: inhibition of TRPV3 currents): ~84% | IC50 (hTRPV3 channels; whole-cell, HEK293, 50 μM 2-APB activation, n = 5, mean ± SD, read-out: IC50 of dose-dependent inhibition of TRPV3 currents): 17.8 ± 3.5 µM
